Laboratory results as given in US11866431B2, “Bicyclic compounds” (Vivace Therapeutics, Inc., priority 2018, dated 2024).

Test system: 8XTBD luciferase reporter (YAP reporter) in HEK293T cells
Assay: YAP Reporter Assay
Type: cell-based
Conditions: Homo sapiens, HEK-293T; HEK293T cells stably transfected with 8XTBD luciferase reporter and pRLTK; 24-hr incubation; top concentration 3 μM; read-out: Firefly Luciferase IC50
Procedure: HEK293T cells stably transfected with 8XTBD luciferase reporter and pRLTK in 384-well plates were treated with the test compounds, starting from 3 μM (final concentration in assay plate), 1:3 dilution, and 10 points in quadruplicates. Post 24-hr incubation with compounds at 37° C. and 5% CO2, cells were lysed and 8XTBD-driven firefly luciferase and control TK-driven renilla luciferase activities were measured using Promega Dual-Luciferase Reporter Assay System.
Reagents: The reagents used for this study are: DMEM: Invitrogen #11960077, Dual-Glo Luciferase Assay System: Promega-E2980, Puromycin Dihydrochloride: Invitrogen-A1113803, 384-well plate: PerkinElmer-6007480, L-GLUTAMINE: Invitrogen-25030164, Hygromycin B: Invitrogen-10687010, and Penicillin-Streptomycin: Merk-TMS-AB2-C
Media: The media used for this assay were: Culture Medium: DMEM+1 ug/mL puromycin+200 ug/mL hygromycin (with 10% FBS+1 mM L-glutamine); and Assay Medium: DMEM (with 10% FBS+1 mM L-glutamine+1×P/S).
Cell Plating: The appropriate media was warmed at 37° C. by water bath: Culture Medium, Assay Medium, 1*D-PBS, 0.05% trypsin-EDTA. The cells were trypsinized after removing all media, then washed with 1*sterile D-PBS and then with 2 ml 0.05% trypsin-EDTA. The cells were then incubated at RT for one minute. Then 10 ml/75 cm2 flask Assay Medium was added to each flask. Using a 10 ml pipette, the cells were then gently resuspended in the media, until the clumps completely disappeared. The cells were then transferred into 50 ml centrifuge tubes and were centrifuged at 800 rpm for 5 mins. The medium was removed and the cells were resuspended with Assay Medium. An aliquot of cells was used to count the cell density (cells/ml). The cell suspension was then diluted with Assay Medium to a concentration of 6×10^4 cells/ml. 50 ul cells suspension was then plated to 384-well plate (PerkinElmer-6007480), 3×10^3 cells/well and the cells were incubated in an incubator at 37° C. 5% CO2.
Compound Treatment: In the afternoon (incubation of the plate with 3-4 hrs), the test compounds were added by Echo, starting from 3 uM (final concentration in the assay plate), 1:3 dilution, 10 points, quadruplicates. The plate was placed at 37° C. 5% CO2 incubator for 24 hrs.
Detection: The Dual-Glo Luciferase Reagent was prepared by transferring the contents of one bottle of Dual-Glo Luciferase Buffer to one bottle of Dual-Glo Luciferase Substrate to create the Dual-Glo Luciferase Reagent. Mixing was performed by inversion until the substrate was thoroughly dissolved. After mixing, the reagent was aliquoted into 15 ml tubes. In the afternoon (24 hrs post compound treatment), the DMEM+ medium in the 384 well plates were aspirated by Microplate Washer.
Measuring firefly luciferase activity: 20 ul Dual-Glo Luciferase Reagent was added to the 384-well plates. The plates were protected from light to prevent interference with the assay. The plates were shaken for 1 min followed centrifuging plates at 1000 rpm for 30 seconds. After waiting at least 10 minutes, the firefly luminescence was measured by Envision.
Measuring renilla luciferase activity: 20 ul Stop-Glo Reagent was added to the 384-well plates. The plates were shaken for 1 min and then centrifuged at 1000 rpm for 30 seconds. After waiting at least 10 minutes, the renilla luminescence was measured by Envision.
Compound IC50 and maximum inhibition on the firefly luciferase and renilla luciferase activities were reported separately.

| Structure (SMILES) | IC50 |
| --- | --- |
| CC(C)NC(=O)c1ccc2c(-c3ccc(C(F)(F)F)cc3)ccc(N(C)S(C)(=O)=O)c2c1 [Compound 34, N-isopropyl-8-(N-methylmethylsulfonamido)-5-(4-(trifluoromethyl)phenyl)-2-naphthamide] | 1000 to 3000 nM |
| CC(C)NC(=O)c1ccc2c(-c3ccc(C(F)(F)F)cc3)cc3onnc3c2c1 [Compound 35, N-isopropyl-5-[4-(trifluoromethyl)phenyl]benzo[e][1,2,3]benzoxadiazole-8-carboxamide] | 100 to 1000 nM |
| CC(C)NC(=O)c1ccc2c(-c3ccc(C(F)(F)F)cc3)cc(Cl)cc2c1 [Compound 36, 7-chloro-N-isopropyl-5-(4-(trifluoromethyl)phenyl)-2-naphthamide] | < 100 nM |
| COc1ccc(-c2ccc(C(F)(F)F)cc2)c2ccc(C(=O)NC(C)C)cc12 [Compound 37, N-isopropyl-8-methoxy-5-[4-(trifluoromethyl)phenyl]naphthalene-2-carboxamide] | < 100 nM |
| C#Cc1cc(-c2ccc(C(F)(F)F)cc2)c2ccc(C(=O)NC(C)C)cc2c1 [Compound 38, 7-ethynyl-N-isopropyl-5-(4-(trifluoromethyl)phenyl)-2-naphthamide] | < 100 nM |
| COc1cc(-c2ccc(C(F)(F)F)cc2)c2ccc(C(=O)NC(C)C)cc2c1 [Compound 39, N-isopropyl-7-methoxy-5-[4-(trifluoromethyl)phenyl]naphthalene-2-carboxamide] | < 100 nM |
| CC(=O)NCCOCCOCCNC(=O)c1ccc2c(-c3ccc(C(F)(F)F)cc3)cccc2c1 [Compound 40, N-(2-(2-(2-acetamidoethoxy)ethoxy)ethyl)-5-(4-(trifluoromethyl)phenyl)-2-naphthamide] | < 100 nM |
| Cc1cc(-c2ccc(C(F)(F)F)cc2)c2ccc(C(=O)NC(C)C)cc2c1 [Compound 41, N-isopropyl-7-methyl-5-(4-(trifluoromethyl)phenyl)-2-naphthamide] | < 100 nM |
| CSc1cc(-c2ccc(C(F)(F)F)cc2)c2ccc(C(=O)NC(C)C)cc2c1 [Compound 42, N-isopropyl-7-(methylthio)-5-(4-(trifluoromethyl)phenyl)-2-naphthamide] | < 100 nM |
| CC(C)NC(=O)c1ccc2c(-c3ccc(C(F)(F)F)cc3)cc(C3CC3)cc2c1 [Compound 43, 7-cyclopropyl-N-isopropyl-5-[4-(trifluoromethyl)phenyl]naphthalene-2-carboxamide] | < 100 nM |
| CC(C)NC(=O)c1ccc2c(-c3ccc(C(F)(F)F)cc3)cc(N)cc2c1 [Compound 44, 7-amino-N-isopropyl-5-[4-(trifluoromethyl)phenyl]naphthalene-2-carboxamide] | < 100 nM |
| CC(C)NC(=O)c1ccc2c(-c3ccc(C(F)(F)F)cc3)cc([S+](C)[O-])cc2c1 (stereo not shown) [Compound 45, N-isopropyl-7-methylsulfinyl-5-[4-(trifluoromethyl)phenyl]naphthalene-2-carboxamide] | 100 to 1000 nM |
| CC(C)NC(=O)c1ccc2c(-c3ccc(C(F)(F)F)cc3)cc(S(C)(=O)=O)cc2c1 [Compound 46, N-isopropyl-7-methylsulfonyl-5-[4-(trifluoromethyl)phenyl]naphthalene-2-carboxamide] | < 100 nM |
| CCc1cc(-c2ccc(C(F)(F)F)cc2)c2ccc(C(=O)NC(C)C)cc2c1 [Compound 47, 7-ethyl-N-isopropyl-5-(4-(trifluoromethyl)phenyl)-2-naphthamide] | < 100 nM |
| CC(=O)Nc1cc(-c2ccc(C(F)(F)F)cc2)c2ccc(C(=O)NC(C)C)cc2c1 [Compound 48, 7-acetamido-N-isopropyl-5-(4-(trifluoromethyl)phenyl)-2-naphthamide] | 100 to 1000 nM |
| CC(C)(C)OC(=O)NCCOCCOCCNC(=O)c1ccc2c(-c3ccc(C(F)(F)F)cc3)cccc2c1 [Compound 49, Tert-Butyl (2-(2-(2-(5-(4-(trifluoromethyl)phenyl)-2-naphthamido)ethoxy)ethoxy)ethyl)carbamate] | 100 to 1000 nM |
